These compounds were tested against ALK2 (Homo sapiens (Human), UniProt Q04771) (assay: ALK2 inhibition, LanthaScreen Eu Kinase Binding Assay (ThermoFisher Scientific / Life Technologies)). Conditions: read-out: Measured Ki (IC50) Value for Compounds: IC50.
Procedure: Biochemical assays to measure the inhibitory effects of the compounds were performed by ThermoFisher Scientific (Life Technologies). ALK2 inhibition was tested using LanthaScreen™ Eu Kinase Binding Assay screening protocol.

ALK2, sequence (Q04771 21-509): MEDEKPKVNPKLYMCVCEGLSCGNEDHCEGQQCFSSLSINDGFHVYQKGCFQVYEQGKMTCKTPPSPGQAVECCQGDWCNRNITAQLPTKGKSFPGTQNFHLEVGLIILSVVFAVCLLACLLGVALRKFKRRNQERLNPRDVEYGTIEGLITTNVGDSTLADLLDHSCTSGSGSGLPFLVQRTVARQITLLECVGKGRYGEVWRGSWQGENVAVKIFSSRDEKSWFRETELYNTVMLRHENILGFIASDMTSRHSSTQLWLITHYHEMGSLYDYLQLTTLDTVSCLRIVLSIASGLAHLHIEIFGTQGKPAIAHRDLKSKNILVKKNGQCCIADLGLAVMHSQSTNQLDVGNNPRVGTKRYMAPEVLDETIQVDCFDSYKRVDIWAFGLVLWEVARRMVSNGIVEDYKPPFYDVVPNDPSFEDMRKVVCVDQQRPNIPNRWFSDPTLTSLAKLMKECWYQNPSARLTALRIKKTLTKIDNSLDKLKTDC

| IC50 | Compound |
| --- | --- |
| < 0.1 µM | COc1cc(-n2cnc(Nc3nc(N4CCC[C@H]4CO)c4c(C)nn(CC5CCCCC5)c4n3)c2)cc(OC)c1OC [Compound 438c, (S)-(1-(1-(cyclohexylmethyl)-3-methyl-6-((1-(3,4,5-trimethoxyphenyl)-1H-imidazol-4-yl)amino)-1H-pyrazolo[3,4-d]pyrimidin-4-yl)pyrrolidin-2-yl)methanol] |
| < 0.1 µM | COc1cc(-n2cnc(Nc3nc(N4CCC[C@H]4CO)c4c(C)nn(C5CCCCC5)c4n3)c2)cc(OC)c1OC [Compound 439c, (S)-(1-(1-cyclohexyl-3-methyl-6-((1-(3,4,5-trimethoxyphenyl)-1H-imidazol-4-yl)amino)-1H-pyrazolo[3,4-d]pyrimidin-4-yl)pyrrolidin-2-yl)methanol] |
| < 0.1 µM | COc1cc(-n2cnc(Nc3nc(N4CCC[C@H]4CO)c4c(C)nn(C5CCCC5)c4n3)c2)cc(OC)c1OC [Compound 440c, (S)-(1-(1-cyclopentyl-3-methyl-6-((1-(3,4,5-trimethoxyphenyl)-1H-imidazol-4-yl)amino)-1H-pyrazolo[3,4-d]pyrimidin-4-yl)pyrrolidin-2-yl)methanol] |
| < 0.1 µM | OC[C@@H]1CCCN1c1nc(Nc2cn(-c3ccnc4c(F)cccc34)cn2)c2cccn2n1 [Compound 441e, (S)-(1-(4-((1-(8-fluoroquinolin-4-yl)-1H-imidazol-4-yl)amino)pyrrolo[2,1-f][1,2,4]triazin-2-yl)pyrrolidin-2-yl)methanol] |
| < 0.1 µM | COc1cc(-n2cnc(Nc3nc(N4CCC[C@H]4CO)c4c(C)nn(C5CCC5)c4n3)c2)cc(OC)c1OC [Compound 442c, (S)-(1-(1-cyclobutyl-3-methyl-6-((1-(3,4,5-trimethoxyphenyl)-1H-imidazol-4-yl)amino)-1H-pyrazolo[3,4-d]pyrimidin-4-yl)pyrrolidin-2-yl)methanol] |
| < 0.1 µM | OC[C@@H]1CCCN1c1nc(Nc2cn(-c3ccnc4ccsc34)cn2)c2cccn2n1 [Compound 443e, (S)-(1-(4-((1-(thieno[3,2-b]pyridin-7-yl)-1H-imidazol-4-yl)amino)pyrrolo[2,1-f][1,2,4]triazin-2-yl)pyrrolidin-2-yl)methanol] |

Continued, compound first:

| Compound | IC50 |
| --- | --- |
| OC[C@@H]1CCCN1c1nc(Nc2cn(-c3ccc4c(c3)OC(F)(F)O4)cn2)c2cccn2n1 [Compound 433b, (S)-(1-(4-((1-(2,2-difluorobenzo[d][1,3]dioxol-5-yl)-1H-imidazol-4-yl)amino)pyrrolo[2,1-f][1,2,4]triazin-2-yl)pyrrolidin-2-yl)methanol] | 0.1 to 1 µM |
| OCc1cccc(-n2cnc(Nc3nc(N4CCC[C@H]4CO)nn4cccc34)c2)c1 [Compound 434e, (S)-(1-(4-((1-(3-(hydroxymethyl)phenyl)-1H-imidazol-4-yl)amino)pyrrolo[2,1-f][1,2,4]triazin-2-yl)pyrrolidin-2-yl)methanol] | < 0.1 µM |
| COc1cc(-n2cnc(Nc3nc(N4CCC[C@H]4CO)c4c(C)nn([C@H]5CC[C@H](N)CC5)c4n3)c2)cc(OC)c1OC [Compound 435e, ((S)-1-(1-((trans)-4-aminocyclohexyl)-3-methyl-6-((1-(3,4,5-trimethoxyphenyl)-1H-imidazol-4-yl)amino)-1H-pyrazolo[3,4-d]pyrimidin-4-yl)pyrrolidin-2-yl)methanol] | < 0.1 µM |
| OCc1ccc(-n2cnc(Nc3nc(N4CCC[C@H]4CO)nn4cccc34)c2)cc1 [Compound 436e, (S)-(1-(4-((1-(4-(hydroxymethyl)phenyl)-1H-imidazol-4-yl)amino)pyrrolo[2,1-f][1,2,4]triazin-2-yl)pyrrolidin-2-yl)methanol] | < 0.1 µM |
| Cc1cc(-n2cnc(Nc3nc(N4CCC[C@H]4CO)nn4cccc34)c2)ccn1 [Compound 437e, (S)-(1-(4-((1-(2-methylpyridin-4-yl)-1H-imidazol-4-yl)amino)pyrrolo[2,1-f][1,2,4]triazin-2-yl)pyrrolidin-2-yl)methanol] | < 0.1 µM |

Reference: patent publication US11661426B2, “Imidazole-containing inhibitors of ALK2 kinase” (BioCryst Pharmaceuticals, Inc., priority 2017, dated 2023)
